Several values for one entry are separate records, joined by “and”; a condition that tells them apart may be missing. Equal values may be shown once.

These results are taken from patent publication US20220202964A1, “HEPARANASE COMPOUNDS AND METHODS OF USE” (University of Florida Research Foundation, Incorporated, priority 2019, published 2022).

Series [1] concerns the target T1, heparanase (Homo sapiens, UniProt Q9Y251).
T1 sequence (Q9Y251 36-543): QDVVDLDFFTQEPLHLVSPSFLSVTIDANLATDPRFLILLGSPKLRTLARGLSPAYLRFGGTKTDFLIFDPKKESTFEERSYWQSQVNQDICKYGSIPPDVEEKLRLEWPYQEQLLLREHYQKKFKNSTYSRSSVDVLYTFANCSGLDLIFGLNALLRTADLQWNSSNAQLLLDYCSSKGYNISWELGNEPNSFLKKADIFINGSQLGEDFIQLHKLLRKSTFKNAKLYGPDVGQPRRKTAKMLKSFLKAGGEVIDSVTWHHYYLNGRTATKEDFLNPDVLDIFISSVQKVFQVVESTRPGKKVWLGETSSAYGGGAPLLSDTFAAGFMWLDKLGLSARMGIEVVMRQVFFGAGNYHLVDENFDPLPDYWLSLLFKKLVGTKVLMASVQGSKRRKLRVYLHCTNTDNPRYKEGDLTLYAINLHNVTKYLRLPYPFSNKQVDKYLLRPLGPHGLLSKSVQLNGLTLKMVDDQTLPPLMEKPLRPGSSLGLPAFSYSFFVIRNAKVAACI
In words: HPLC analysis of compounds 1-4 with heparanase. Type of series: biochemical. The conditions noted are these: 5 μM, heparanase 1 μg, 4 hours, 37° C., NaOAc pH 5.0. As to the method:
Heparanase (1 μg, 20 μL) was added to the compounds 1-4 solution (180 μL, 5 μM) in 40 mM NaOAc buffer (pH 5.0) and the mixture was incubated for 4 hours at 37° C. The resulting mixtures were injected into HPLC for analysis. HPLC analysis was performed under the following conditions—mobile phase A: water with 0.1% TFA; B: acetonitrile with 0.1% TFA; 0-20 min: gradient elution, 25-95% B. The trace was monitored by DAD detector at 315 nm.

The nature of series [2]: pH profile of fluorescence / pKa. The conditions noted are these: pH range from 1 to 13. Type of series: physicochemical. As to the method:
So, pH profiles of the fluorophore DiFMU and Compound 1 (HADP) were evaluated. […] In contrast, the pKa of 4-methylumbelliferone is ca. 7.8. […] Moreover, the introduction of the fluorine substituents increased the quantum yield and improved the photostability, enabling highly sensitive detection for heparanase.

For series [3], the system named is Hyaluronidase. Description: Fluorescence response to biological species: hyaluronidase. Type of series: biochemical. The conditions noted are these: 5 μM; hyaluronidase 5 μg (50 μg also tested); 4 h, 37° C. The procedure:
(§1) 5 μM compound 1 (HADP) was incubated with various biological species at the indicated amount/concentration in 96-well microplate. Cysteine (5 mM), Glutathione (5 mM), H2O2 (100 μM), Esterase, Chondroitinase ABC, Hyaluronidase, Lysozyme, β-Glucuronidase, β-Glucosidase (5 μg each) and heparanase (2 μg). For Chondroitinase ABC and Hyaluronidase, 50 μg was also tested. Each sample was performed in triplicates. Then the microplate was sealed with sealing film and incubated at 37° C. for 4 hours. Fluorescence intensity was recorded on Spectramax M5 Multimode plate reader (Molecular Devices, USA). λex/em=365 nm/455 nm.

The target of series [4] is T1, heparanase. Description: Activation of compounds by recombinant heparanase (fluorescence response). Type of series: biochemical. As to the method:
To a solution of 20 μL, of 50 μM compound 1 (HADP) and 160 μL 40 mM NaOAc (pH=5.0) was added 20 μL, 0.1 μg/μL heparanase to obtain 5 μM 1 (HADP) with 2 μg heparanase solution. After incubation at 37° C. for 2 h, the reaction solution was transferred to quartz cuvettes to measure absorbance or fluorescence. Absorbance spectrum scan range from 250 nm to 500 nm (1 nm increment). fluorescence spectrum setting: λex=365 nm, Slit Width 2.5 nm. Emission was record from 400 nm to 600 nm, Slit Width 5 nm. Absorption spectra were recorded on Shimadzu UV-2700 UV-VIS Spectrophotometer. Fluorescence spectra were recorded on Fluorolog TAU-3 Spectrofluorometer with a xenon lamp (Jobin Yvon-Spex, Instruments S. A., Inc.)
Fluorescence micro cells was charged with 20 μL, of 50 μM compound 1 (HADP) and 160 μL 40 mM NaOAc (pH=5.0). Then 20 μL, 0.05 μg/μL heparanase was added to the above solution. Fluorescence spectra were recorded from 0 min to 3 h. fluorescence spectrum setting: λex=365 nm, Slit Width 2.5 nm. Emission was record from 400 nm to 600 nm, Slit Width 5 nm.
To a solution of 20 μL, of 50 μM each compound and 160 μL, 40 mM NaOAc (pH=5.0) was added 20 μL, 0.05 μg/μL heparanase to obtain 5 μM each compound with 1 μg heparanase solution in 96-well microplate. Each compound was performed in triplicate. Then the microplate was sealed with sealing film and incubated at 37° C. Fluorescence intensity was recorded on Spectramax M5 Multimode plate reader (Molecular Devices, USA) at each timepoint. λex/em=365 nm/455 nm.
as §1

The target in series [5] is T1, heparanase. In words: Kinetics and detection limit of heparanase by Compound 1 (HADP). Type of series: biochemical. As to the method:
To a solution of 20 μL, of 50 μM HADP (compound 1) and 160 μL 40 mM NaOAc buffer (pH 5.0) buffers was added 20 μL, heparanase with various concentrations (0-0.1 μg/μL) in 96-well microplate. Then final concentration of heparanase is from 0-0.01 μg/μL. Each concentration was performed in triplicates. Then the fluorescence intensity was recorded on Spectramax M5 Multimode plate reader (Molecular Devices, USA) at each timepoint. λex/em=365 nm/455 nm.
To calculate the detection limit, plot the fluorescence intensity against heparanase concentration and fit a line with linear regression. The detection limit was estimated with the following formula. LOD=3 σ/s, where σ represents standard deviation of fluorescent intensity of blank sample, s is the calculated slope of linear regression equation.
To determine the detection limit of Compound 1 (HADP) probe for heparanse, concentration-dependent studies with various concentrations of heparanse over time were performed with 5 μM 1 (HADP). The concentration increases of heparanse led to higher fluorescent intensities at the same time point due to the expedited cleavage of glyosidic bond, releasing more fluorophores. A good linear relationship was obtained in the heparanse concentration range of 0-0.01 μgμl-1 with an equation of F455 nm=650443[HPA]+12.03 (R^2=0.9968). Based on 3σ/s method, the limit of detection (LOD) of Compound 1 for heparanse was calculated to be 0.35 ng/mL (67 pM), indicating the ultra-sensitivity of Compound 1 (HADP) to detect heparanase activity. The kinetic parameters for the enzymatic cleavage of Compound 1 (HADP) were determined via time-dependent fluorescence intensity in the presence of heparanase and probe 1 (HADP) at different concentration.

A short description of series [6]: Selectivity toward heparanase against interfering biological molecules and enzymes. Type of series: biochemical. The procedure: as §1

Consider `Cc1cc(=O)oc2c(F)c(O[C@@H]3O[C@H](C(=O)O)[C@@H](O[C@H]4O[C@H](CO)[C@@H](O)[C@H](O)[C@H]4NS(=O)(=O)O)[C@H](O)[C@H]3O)c(F)cc12` [Compound 1], for which the “cleavage by heparanase (HPLC trace)” value in series [1] was “clean conversion”. In addition, the “fluorescence change at 455 nm over pH” value in series [2] is “no remarkable fluorescence change”. Further, the fluorescence change result in series [3] is “did not afford obvious fluorescence change”. For the same compound, in series [4] (5 μM compound, 1 μg heparanase, 40 mM NaOAc buffer (pH 5.0), 37° C., λex/em=365 nm/455 nm), the “fluorescence response towards heparanase” value was “significant fluorescence enhancement”. For the same compound, the “fluorescence enhancement turn-on ratio at 450 nm” value in series [4] (5 μM, heparanase 2 μg (0.01 μgμl-1), after 2 hours, NaOAc pH 5.0) was “up to 756 fold”. Besides, in series [4] (5 μM, heparanase 2 μg, 4 h, 37° C.), the “fluorescence off-on response to heparanase in selectivity panel” value is reported as “largest “off-on” response”. Further, the “time at which fluorescence reached a plateau” value in series [4] (HADP 5 μM, heparanase 1 μg) was determined as 2.5 h. Also, the “time at which the enzymatic reaction was completed after addition of heparanase” value in series [4] (heparanase 2 μg, 5 μM probe) was 40 min. Further, the “limit of detection (LOD) for heparanase” value in series [5] (5 μM probe, 3σ/s method) was 0.35 ng/mL and 67 pM. Moreover, the “turnover number (kcat)” value in series [5] (enzymatic cleavage by heparanase) stood at 0.04 s⁻¹. For the same compound, the Km in series [5] (enzymatic cleavage by heparanase, read-out: Michaelis constant (Km)) was 8.3 µM. Further, in series [6], the “selectivity for heparanase over other competitive analytes” value is recorded as “excellent selectivity”. Besides, the “fluorescence increase upon addition of other molecules and enzymes” value in series [6] (5 μM, superphysiological levels, 4 h, 37° C.) is given as “no fluorescence increase”.
